Results: ChEMBL document CHEMBL1147946, “3-{2-[Bis-(4-fluorophenyl)methoxy]ethyl}-6-substituted-3,6-diazabicyclo[3.1.1]heptanes as novel potent dopamine uptake inhibitors” (Bioorg Med Chem, 2007)

Target: Sodium-dependent dopamine transporter (Rattus norvegicus, UniProt P23977)
Assay: Inhibition of [3H]dopamine uptake at DAT in Sprague-Dawley rat striatum synaptosome
Assay type: tissue-based

Chain of Sodium-dependent dopamine transporter (P23977 whole entry): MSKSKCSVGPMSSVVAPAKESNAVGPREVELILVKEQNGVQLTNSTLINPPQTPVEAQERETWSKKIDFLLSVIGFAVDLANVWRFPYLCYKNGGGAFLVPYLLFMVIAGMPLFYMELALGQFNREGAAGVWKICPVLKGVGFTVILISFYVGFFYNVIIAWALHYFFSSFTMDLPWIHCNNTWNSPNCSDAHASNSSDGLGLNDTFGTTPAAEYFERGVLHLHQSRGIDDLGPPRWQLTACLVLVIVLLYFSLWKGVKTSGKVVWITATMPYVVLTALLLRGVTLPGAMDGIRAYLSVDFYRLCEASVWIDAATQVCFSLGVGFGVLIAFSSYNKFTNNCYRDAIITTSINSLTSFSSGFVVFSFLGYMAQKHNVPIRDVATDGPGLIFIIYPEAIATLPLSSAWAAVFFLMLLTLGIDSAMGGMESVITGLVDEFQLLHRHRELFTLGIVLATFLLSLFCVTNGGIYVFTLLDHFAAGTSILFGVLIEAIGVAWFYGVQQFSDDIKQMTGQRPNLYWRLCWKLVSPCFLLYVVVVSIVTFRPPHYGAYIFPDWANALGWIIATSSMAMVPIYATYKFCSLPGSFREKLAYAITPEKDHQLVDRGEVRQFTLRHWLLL

How did the Ki turn out when `Fc1ccc(C(OCCN2CC3CC(C2)N3Cc2cc3ccccc3s2)c2ccc(F)cc2)cc1` was run?
Its Ki is 35 nM.

With `Fc1ccc(C(OCCN2CC3CC(C2)N3C/C=C/c2ccco2)c2ccc(F)cc2)cc1` as the compound, how does the Ki read?
The Ki was 8.8 nM.

Which Ki does the source give for `Fc1ccc(C(OCCN2CC3CC(C2)N3C/C=C/c2cccs2)c2ccc(F)cc2)cc1` here?
Its Ki is 12.6 nM.

With `Fc1ccc(C(OCCN2CC3CC(C2)N3C/C=C/c2ccc3ccccc3c2)c2ccc(F)cc2)cc1` as the compound, how does the Ki read?
The Ki was 45.6 nM.

For `Fc1ccc(C(OCCN2CC3CC(C2)N3CC2=Cc3ccccc3C2)c2ccc(F)cc2)cc1`, which Ki is on record?
Its Ki is 6.5 nM.

Which Ki does the source give for `Fc1ccc(C(OCCN2CC3CC(C2)N3C/C=C/c2ccccc2)c2ccc(F)cc2)cc1` here?
Its Ki is 9.1 nM.

`Fc1ccc(C(OCCN2CC3CC(C2)N3Cc2cc3ccccc3[nH]2)c2ccc(F)cc2)cc1` was tested. Which Ki did it give?
Its Ki is 5.5 nM.

With `Fc1ccc(C(OCCN2CC3CC(C2)N3Cc2cc3ccccc3o2)c2ccc(F)cc2)cc1` as the compound, how does the Ki read?
The Ki was 37.5 nM.

With `Cc1ccccc1/C=C/CN1C2CC1CN(CCOC(c1ccc(F)cc1)c1ccc(F)cc1)C2` as the compound, how does the Ki read?
The Ki was 6.25 nM.
